Reference: paper PMC6566410, “Novel Diamide-Based Benzenesulfonamides as Selective Carbonic Anhydrase IX Inhibitors Endowed with Antitumor Activity: Synthesis, Biological Evaluation and In Silico Insights” (International Journal of Molecular Sciences, 2019)

Key:
Experiment in all cases: NCI one-dose SRB assay
Assay type in all cases: cell-based
[1] = system: A549/ATCC; details: Homo sapiens, A549/ATCC (Non-Small Cell Lung Cancer), 1.00E-5 Molar, read-out: Growth Percent
Method: (§1) First, all diamide-based benzenesulfonamides herein reported 5a–h were screened for their antitumor activity at one dose (10^−5 M) assay against a panel of sixty cancer cell lines through the National Cancer Institute (NCI) Developmental Therapeutic Program (www.dtp.nci.nih.gov), according to US-NCI protocol. The cell growth and cell viability were evaluated using the sulforhodamine B (SRB) colorimetric assay.
(§2) This assay was carried out according to the protocol of the Drug Evaluation Branch, NCI, Bethesda. The cell growth and cell viability were evaluated using the sulforhodamine B (SRB) colorimetric assay, as reported earlier.

[2] = system: ACHN; details: Homo sapiens, ACHN (Renal Cancer), 1.00E-5 Molar, read-out: Growth Percent
Method: as §1, §2

[3] = system: CAKI-1; details: Homo sapiens, CAKI-1 (Renal Cancer), 1.00E-5 Molar, read-out: Growth Percent
Method: as §1, §2

[4] = system: CCRF-CEM; details: Homo sapiens, CCRF-CEM (Leukemia), 1.00E-5 Molar, read-out: Growth Percent
Method: as §1, §2

[5] = system: COLO 205; details: Homo sapiens, COLO 205 (Colon Cancer), 1.00E-5 Molar, read-out: Growth Percent
Method: as §1, §2

[6] = system: HCC-2998; details: Homo sapiens, HCC-2998 (Colon Cancer), 1.00E-5 Molar, read-out: Growth Percent
Method: as §1, §2

[7] = system: HCT-116; details: Homo sapiens, HCT-116 (Colon Cancer), 1.00E-5 Molar, read-out: Growth Percent
Method: as §1, §2

[8] = system: HOP-92; details: Homo sapiens, HOP-92 (Non-Small Cell Lung Cancer), 1.00E-5 Molar, read-out: Growth Percent
Method: as §1, §2

[9] = system: K-562; details: Homo sapiens, K562, K-562 (Leukemia), 1.00E-5 Molar, read-out: Growth Percent
Method: as §1, §2

[10] = system: KM12; details: Homo sapiens, KM12 (Colon Cancer), 1.00E-5 Molar, read-out: Growth Percent
Method: as §1, §2

[11] = system: M14; details: Homo sapiens, M14 (Melanoma), 1.00E-5 Molar, read-out: Growth Percent
Method: as §1, §2

[12] = system: MCF7; details: Homo sapiens, MCF7 (Breast Cancer), 1.00E-5 Molar, read-out: Growth Percent
Method: as §1, §2

[13] = system: MDA-MB-231/ATCC; details: Homo sapiens, MDA-MB-231/ATCC (Breast Cancer), 1.00E-5 Molar, read-out: Growth Percent
Method: as §1, §2

[14] = system: MOLT-4; details: Homo sapiens, MOLT-4 (Leukemia), 1.00E-5 Molar, read-out: Growth Percent
Method: as §1, §2

[15] = system: NCI-H226; details: Homo sapiens, NCI-H226 (Non-Small Cell Lung Cancer), 1.00E-5 Molar, read-out: Growth Percent
Method: as §1, §2

[16] = system: NCI-H23; details: Homo sapiens, NCI-H23 (Non-Small Cell Lung Cancer), 1.00E-5 Molar, read-out: Growth Percent
Method: as §1, §2

[17] = system: NCI-H322M; details: Homo sapiens, NCI-H322M (Non-Small Cell Lung Cancer), 1.00E-5 Molar, read-out: Growth Percent
Method: as §1, §2

[18] = system: NCI/ADR-RES; details: Homo sapiens, NCI/ADR-RES (Ovarian Cancer), 1.00E-5 Molar, read-out: Growth Percent
Method: as §1, §2

[19] = system: OVCAR-3; details: Homo sapiens, OVCAR-3 (Ovarian Cancer), 1.00E-5 Molar, read-out: Growth Percent
Method: as §1, §2

[20] = system: OVCAR-4; details: Homo sapiens, OVCAR-4 (Ovarian Cancer), 1.00E-5 Molar, read-out: Growth Percent
Method: as §1, §2

[21] = system: OVCAR-5; details: Homo sapiens, OVCAR-5 (Ovarian Cancer), 1.00E-5 Molar, read-out: Growth Percent
Method: as §1, §2

[22] = system: PC-3; details: Homo sapiens, PC-3 (Prostate Cancer), 1.00E-5 Molar, read-out: Growth Percent
Method: as §1, §2

[23] = system: RPMI-8226; details: Homo sapiens, RPMI-8226 (Leukemia), 1.00E-5 Molar, read-out: Growth Percent
Method: as §1, §2

[24] = system: SF-295; details: Homo sapiens, SF-295 (CNS Cancer), 1.00E-5 Molar, read-out: Growth Percent
Method: as §1, §2

[25] = system: SF-539; details: Homo sapiens, SF-539 (CNS Cancer), 1.00E-5 Molar, read-out: Growth Percent
Method: as §1, §2

[26] = system: SK-MEL-2; details: Homo sapiens, SK-MEL-2 (Melanoma), 1.00E-5 Molar, read-out: Growth Percent
Method: as §1, §2

[27] = system: SK-MEL-5; details: Homo sapiens, SK-MEL-5 (Melanoma), 1.00E-5 Molar, read-out: Growth Percent
Method: as §1, §2

[28] = system: SK-OV-3; details: Homo sapiens, SK-OV-3 (Ovarian Cancer), 1.00E-5 Molar, read-out: Growth Percent
Method: as §1, §2

[29] = system: SW-620; details: Homo sapiens, SW-620 (Colon Cancer), 1.00E-5 Molar, read-out: Growth Percent
Method: as §1, §2

[30] = system: T-47D; details: Homo sapiens, T47D, T-47D (Breast Cancer), 1.00E-5 Molar, read-out: Growth Percent
Method: as §1, §2

[31] = system: U251; details: Homo sapiens, U-251, U251 (CNS Cancer), 1.00E-5 Molar, read-out: Growth Percent
Method: as §1, §2

SMILES	activity at 10 µM [1] [%]	activity at 10 µM [2] [%]	activity at 10 µM [3] [%]	activity at 10 µM [4] [%]	activity at 10 µM [5] [%]	activity at 10 µM [6] [%]	activity at 10 µM [7] [%]	activity at 10 µM [8] [%]	activity at 10 µM [9] [%]	activity at 10 µM [10] [%]	activity at 10 µM [11] [%]	activity at 10 µM [12] [%]	activity at 10 µM [13] [%]	activity at 10 µM [14] [%]	activity at 10 µM [15] [%]	activity at 10 µM [16] [%]	activity at 10 µM [17] [%]	activity at 10 µM [18] [%]	activity at 10 µM [19] [%]	activity at 10 µM [20] [%]	other results
Cc1ccc(C=C(NC(=O)c2ccccc2)C(=O)Nc2ccc(S(N)(=O)=O)cc2)cc1 [Compound 5d, N-(3-Oxo-3-((4-sulfamoylphenyl)amino)-1-(p-tolyl)prop-1-en-2-yl)benzamide]	95.4	108	93.9	102	117	100	99.3	109	94.6	103	110	104	104	81.3	105	94.9	108	99.3	111	90.6	activity at 10 µM [21]: 103%; activity at 10 µM [22]: 96.5%; activity at 10 µM [23]: 107%; activity at 10 µM [24]: 106%; activity at 10 µM [25]: 102%; activity at 10 µM [26]: 102%; activity at 10 µM [27]: 97%; activity at 10 µM [28]: 100%; activity at 10 µM [29]: 113%; activity at 10 µM [30]: 101%; activity at 10 µM [31]: 99%
COc1ccc(C=C(NC(=O)c2ccccc2)C(=O)Nc2ccc(S(N)(=O)=O)cc2)cc1 [Compound 5e, N-(1-(4-Methoxyphenyl)-3-oxo-3-((4-sulfamoylphenyl)amino)prop-1-en-2-yl)benzamide]	103	102	98.1	106	110	106	105	109	101	106	107	98.5	110	104	105	99.6	110	106	111	111	activity at 10 µM [21]: 108%; activity at 10 µM [22]: 98.9%; activity at 10 µM [23]: 107%; activity at 10 µM [24]: 112%; activity at 10 µM [25]: 96.8%; activity at 10 µM [26]: 102%; activity at 10 µM [27]: 100%; activity at 10 µM [28]: 97.1%; activity at 10 µM [29]: 101%; activity at 10 µM [30]: 101%; activity at 10 µM [31]: 99.4%
COc1ccc(C=C(NC(=O)c2ccccc2)C(=O)Nc2ccc(S(N)(=O)=O)cc2)c(OC)c1 [Compound 5f, N-(1-(2,4-Dimethoxyphenyl)-3-oxo-3-((4-sulfamoylphenyl)amino)prop-1-en-2-yl)benzamide]	94.9	103	92.3	107	118	110	104	114	116	109	111	87.6	105	114	98.4	101	102	109	113	104	activity at 10 µM [21]: 106%; activity at 10 µM [22]: 96.3%; activity at 10 µM [23]: 109%; activity at 10 µM [24]: 110%; activity at 10 µM [25]: 98.2%; activity at 10 µM [26]: 102%; activity at 10 µM [27]: 102%; activity at 10 µM [28]: 101%; activity at 10 µM [29]: 107%; activity at 10 µM [30]: 101%; activity at 10 µM [31]: 100%
COc1ccc(C=C(NC(=O)c2ccccc2)C(=O)Nc2ccc(S(N)(=O)=O)cc2)cc1OC [Compound 5g, N-(1-(3,4-Dimethoxyphenyl)-3-oxo-3-((4-sulfamoylphenyl)amino)prop-1-en-2-yl)benzamide]	106	99.8	104	109	110	106	109	126	108	104	113	106	105	107	93.3	102	110	104	107	105	activity at 10 µM [21]: 103%; activity at 10 µM [22]: 103%; activity at 10 µM [23]: 107%; activity at 10 µM [24]: 102%; activity at 10 µM [25]: 92.6%; activity at 10 µM [26]: 102%; activity at 10 µM [27]: 99.3%; activity at 10 µM [28]: 97.1%; activity at 10 µM [29]: 102%; activity at 10 µM [30]: 100%; activity at 10 µM [31]: 96.3%
Cc1ccc(C=C(NC(=O)c2ccccc2)C(=O)Nc2ccc(S(N)(=O)=O)cc2)o1 [Compound 5h, N-(1-(5-Methylfuran-2-yl)-3-oxo-3-((4-sulfamoylphenyl)amino)prop-1-en-2-yl)benzamide]	90.6	90.9	84.4	96.9	108	104	89.1	70.1	96.1	98.4	114	97.1	97.4	88.9	102	98.9	106	92.2	108	86.2	activity at 10 µM [21]: 100%; activity at 10 µM [22]: 90.9%; activity at 10 µM [23]: 84.7%; activity at 10 µM [24]: 94.2%; activity at 10 µM [25]: 90.2%; activity at 10 µM [26]: 97.4%; activity at 10 µM [27]: 82.3%; activity at 10 µM [28]: 96.5%; activity at 10 µM [29]: 106%; activity at 10 µM [30]: 85.8%; activity at 10 µM [31]: 88.9%
